Test results published in ChEMBL document CHEMBL1268968, “Lupane-type triterpenoids from the steamed leaves of Acanthopanax koreanum and their inhibitory effects on the LPS-stimulated pro-inflammatory cytokine production in bone marrow-derived dendritic cells” (Bioorg Med Chem Lett, 2010).

Key:
[1] = Antiinflammatory activity in C57BL/6 mouse BMDCs assessed as inhibition of LPS-stimulated IL12 production at 50 uM treated 1 hr before LPS challenge measured 18 hrs post stimulation by ELISA; format: functional, BMDC
[2] = Toxicity in C57BL/6 mouse BMDCs at 50 uM; format: cell-based; conditions: bmdc
[3] = Antiinflammatory activity in C57BL/6 mouse BMDCs assessed as inhibition of LPS-stimulated TNFalpha production at 50 uM treated 1 hr before LPS challenge measured 18 hrs post stimulation by ELISA; format: functional, BMDC
[4] = Antiinflammatory activity in C57BL/6 mouse BMDCs assessed as inhibition of LPS-stimulated IL6 production at 50 uM treated 1 hr before LPS challenge measured 18 hrs post stimulation by ELISA; format: functional; conditions: C57BL/6, BMDC

Compound | inhibition (INH) [1] [%] | Activity [2] | inhibition (INH) [3] [%] | inhibition at 50 µM [4] [%]
C=C(C)[C@@H]1CC[C@]2(C(=O)O)CC[C@]3(C)[C@H](CC[C@@H]4[C@@]5(C)CC[C@@H](O)[C@@](C)(C(=O)O)[C@@H]5CC[C@]43C)[C@@H]12 | <50 | Non-toxic | – | –
C=C(C)[C@@H]1CC[C@]2(C(=O)O)CC[C@]3(C)[C@H](C[C@@H](O)[C@@H]4[C@@]5(C)CC[C@@H](O)[C@@](C)(C=O)[C@@H]5CC[C@]43C)[C@@H]12 | 57.6 | Non-toxic | – | –
C=C(C)[C@@H]1CC[C@]2(C(=O)O)CC[C@]3(C)[C@H](C[C@@H](O)[C@@H]4[C@@]5(C)CC[C@@H](O[C@@H]6O[C@H](CO)[C@@H](O)[C@H](O)[C@H]6O)C(C)(C)[C@@H]5CC[C@]43C)[C@@H]12 | <50 | Non-toxic | – | –
C=C(C)[C@@H]1CC[C@]2(C(=O)O[C@@H]3O[C@H](CO[C@@H]4O[C@H](CO)[C@@H](O)[C@H](O)[C@H]4O)[C@@H](O)[C@H](O)[C@H]3O)CC[C@]3(C)[C@H](CC[C@@H]4[C@@]5(C)CC[C@@H](O)[C@@](C)(C(=O)O)[C@@H]5CC[C@]43C)[C@@H]12 | <50 | Non-toxic | – | –
COC(OC)[C@H](C)[C@@H]1CC[C@]2(C(=O)O)CC[C@]3(C)[C@H](CC[C@@H]4[C@@]5(C)CC[C@@H](O)[C@@](C)(C(=O)O)[C@@H]5CC[C@]43C)[C@@H]12 | 94.2 | Non-toxic | 64.7 | 63.6
C=C(C)[C@@H]1CC[C@]2(C(=O)O[C@@H]3O[C@H](CO[C@@H]4O[C@H](CO)[C@@H](O[C@@H]5O[C@@H](C)[C@H](O)[C@@H](O)[C@H]5O)[C@H](O)[C@H]4O)[C@@H](O)[C@H](O)[C@H]3O)CC[C@]3(C)[C@H](CC[C@@H]4[C@@]5(C)CC[C@@H](O)[C@@](C)(C(=O)O)[C@@H]5CC[C@]43C)[C@@H]12 [ACANKOREOSIDE A] | <50 | Non-toxic | – | –
C=C(C)[C@@H]1CC[C@]2(C(=O)O)CC[C@]3(C)[C@H](C[C@@H](O)[C@@H]4[C@@]5(C)CC[C@@H](O)C(C)(C)[C@@H]5CC[C@]43C)[C@@H]12 [IMPRESSIC ACID] | 62.6 | Non-toxic | 67.9 | –
C[S+]([O-])c1ccc(-c2nc(-c3ccc(F)cc3)c(-c3ccncc3)[nH]2)cc1 (centres undefined) [SB-203580] | 84.3 | – | – | –
C=C(C)[C@@H]1CC[C@]2(C(=O)O)CC[C@]3(C)[C@H](C[C@@H](O)[C@@H]4[C@@]5(C)CC[C@@H](O)[C@@](C)(CO)[C@@H]5CC[C@]43C)[C@@H]12 | <50 | Non-toxic | – | –
C=C(C)[C@@H]1CC[C@]2(C(=O)O[C@@H]3O[C@H](CO[C@@H]4O[C@H](CO)[C@@H](O[C@H]5O[C@@H](C)[C@H](O)[C@@H](O)[C@H]5O)[C@H](O)[C@H]4O)[C@@H](O)[C@H](O)[C@H]3O)CC[C@]3(C)[C@H](C[C@@H](O)[C@@H]4[C@@]5(C)CC[C@@H](O)[C@@](C)(C=O)[C@@H]5CC[C@]43C)[C@@H]12 [ACANKOREOSIDE D] | <50 | Non-toxic | – | –
C=C(C)[C@@H]1CC[C@]2(C(=O)O[C@@H]3O[C@H](CO[C@@H]4O[C@H](CO)[C@@H](O[C@H]5O[C@@H](C)[C@H](O)[C@@H](O)[C@H]5O)[C@H](O)[C@H]4O)[C@@H](O)[C@H](O)[C@H]3O)CC[C@]3(C)[C@H](C[C@@H](O)[C@@H]4[C@@]5(C)CC[C@@H](O)C(C)(C)[C@@H]5CC[C@]43C)C12 (some centres undefined) [ACANTRIFOSIDE A] | <50 | Non-toxic | – | –
